pIC50: −log10 of the molar value.
How the values were obtained:
GSK-3 [1] = details: read-out: concentration that inhibits GSK-3 to half maximal activity; cited from earlier work
HeLa cells [2] = assay: Adenovirus infection, Trypan Blue viability cell counts and morphology; type: cell-based, human; details: roscovitine-treated versus untreated
Experimental: (§1) Cultured cells lines were seeded on six or twelve well tissue culture plates. When they reached 70-85% confluence, cells were infected with various amounts of recombinant GL adenovirus or control adenovirus. Adenovirus was added to each well in 300 μl medium and incubated for 2 hours at 37° C., 5% CO2. After incubation, 1.5 ml of medium was added and incubated at 37° C., 5% CO2. The medium was changed every day. At various time points post-infection, viable cells were counted using Trypan Blue and the remaining cells were collected and frozen for subsequent glycogen measurements.
Trypan Blue Viability Cell Counts: Trypan Blue (0.4%, Gibco) was used to stain dead and dying cells. Cells were removed from the tissue culture plates with 0.25% Trypsin-EDTA (Gibco #25200-056) and resuspended in 1 ml phosphate buffered saline (PBS). Manual cell counts were performed with a Neubauer hemocytometer.
Roscovitine Studies: Roscovitine (Calbiochem #557362), [2-(R)-(1-ethyl-2-hydroxyethylamino)-6-benzyl amino-9-isopropylpurine], is a potent and selective inhibitor of the cyclin-dependent kinases Cdk2 and Cdc2. Roscovitine stock solution was prepared in dimethylsulfoxide (DMSO) and stored at −20° C. until use. […]
Cell viability after viral infection was assessed using the Trypan Blue exclusion assay. Cells stained with Trypan Blue and viable cells are counted using a Neubauer hemocytometer. […]

HeLa cells [3] = assay: Glycogen assay (glucoamylase hydrolysis, glucose Trinder reagent); type: cell-based, human; details: uninfected control HeLa cells, 35 μM roscovitine
Experimental: as §1
Glycogen Assay: Enzymatic glycogen hydrolysis to glucose was performed according to Keppler and Decker with some modifications (Keppler and Decker, 1984 in: Methods of Enzymatic Analysis, 3rd ed. (Bergmeyer, H. U. Bergmeyer, J., and Grab, M. Eds.), Vol. 6, pp. 11-18, VCH, New York.). In brief, frozen cell pellets were subjected to three rounds of freezing and thawing to disrupt cell membranes. Cell pellets were resuspended in 200 μl 250 mU glucoamylase in 0.2 M sodium acetate buffer, pH 4.8. Lysates were incubated for two hours at 45° C. with shaking. Lysates were cleared by centrifugation at 2500 rpm for 10 min. […] Glucose was then determined with the glucose Trinder colorometric reagent (Sigma, 315-500). The intensity of the color reaction was measured at 505nm using a Molecular Devices VERSAmax microplate reader. […]

GSK-3 [4] = details: cited from earlier work

SMILES: [Be+2] [beryllium]
- pIC50 (GSK-3 [1]): 2.22

SMILES: CC[C@H](CO)Nc1nc(NCc2ccccc2)c2ncn(C(C)C)c2n1 [roscovitine, 2-(R)-(1-ethyl-2-hydroxyethylamino)-6-benzyl amino-9-isopropylpurine]
- cell viability of AdGL-infected cells (HeLa cells [2]): significantly decreased
- glycogen accumulation (HeLa cells [3]): no significant increases

SMILES: [Zn+2] [zinc]
- concentration at which GSK-3 is inhibited in cell culture (GSK-3 [4]): 15 mM

Source: patent US20050202559A1, “Cancer treatment by metabolic modulations” (priority 2002, published 2005)
